In PubChem BioAssay (NCI):
“And” between values parts separate entries of the source, which are not always exact repeats. Equal entries are not always repeated.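 Dose response: 5 concentrations. Exposure: 48 h. Format: 96-well plates. Endpoint: linear interpolation; highest concentration if not reached. GI50 marks 50% less growth. TGI: total growth inhibition.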

Columns and labels:
Experiment in all cases: inhibition of tumour cell growth, NCI panel, 48 h
HCC-2998 colon = system: HCC-2998 colon
OVCAR-3 ovarian = system: OVCAR-3 ovarian
SF-295 CNS = system: SF-295 CNS
A498 renal = system: A498 renal
OVCAR-8 ovarian = system: OVCAR-8 ovarian
OVCAR-4 ovarian = system: OVCAR-4 ovarian
NCI-H522 lung = system: NCI-H522 lung
MALME-3M melanoma = system: MALME-3M melanoma
TK-10 renal = system: TK-10 renal
COLO 205 colon = system: COLO 205 colon

| SMILES | GI50 (HCC-2998 colon) | TGI (HCC-2998 colon) | GI50 (OVCAR-3 ovarian) | TGI (OVCAR-3 ovarian) | GI50 (SF-295 CNS) | TGI (SF-295 CNS) | GI50 (A498 renal) | TGI (A498 renal) | GI50 (OVCAR-8 ovarian) | TGI (OVCAR-8 ovarian) | GI50 (OVCAR-4 ovarian) | TGI (OVCAR-4 ovarian) | GI50 (NCI-H522 lung) | TGI (NCI-H522 lung) | GI50 (MALME-3M melanoma) | TGI (MALME-3M melanoma) | GI50 (TK-10 renal) | TGI (TK-10 renal) | GI50 (COLO 205 colon) | TGI (COLO 205 colon) |
| --- | --- | --- | --- | --- | --- | --- | --- | --- | --- | --- | --- | --- | --- | --- | --- | --- | --- | --- | --- | --- |
| O=C(N/N=C/c1ccccc1O)c1ccccc1 | 0.6 µM | 8.34 µM | 0.669 µM | > 100 µM | 1.1 µM | 52.1 µM | 7.28 µM | > 100 µM | 3.46 µM | > 100 µM | 0.725 µM | > 100 µM | 2.67 µM | 53 µM | 4.26 µM | 46.7 µM | 4.11 µM | > 100 µM | 0.75 µM | > 100 µM |
| O=c1oc2ccccc2[n+]([O-])c1-c1ccccc1 |  | > 100 µM |  | > 100 µM |  | > 100 µM |  | > 100 µM |  | > 100 µM |  | > 100 µM |  | > 100 µM |  | > 100 µM |  | > 100 µM |  | > 100 µM |
| COC(=O)C1(C)Cc2cc(OC(C)=O)c(OC(C)=O)cc2N1 (stereo not drawn) | 17.8 µM | 33 µM | 6.97 µM | 23.8 µM | 67.5 µM | > 100 µM | 37.8 µM | > 90.7 µM | 14.4 µM | 70.2 µM | 9.34 µM | 22.9 µM | 0.633 µM | 1.8 µM | 3.18 µM | 15.4 µM | 11.1 µM | 44.1 µM | 6.49 µM | > 40.9 µM |
| CNC(=O)c1nn(C)c2c1C(C)(C)Cc1cnc(Nc3ccc(N4CCN(C)CC4)cc3)nc1-2 | 2.47 µM | > 10 µM | 0.966 µM | > 10 µM | 1.09 µM | > 10 µM | 0.139 µM | 0.861 µM | 3.17 µM | > 10 µM | 0.683 µM | > 8.34 µM | 0.327 µM | > 5.54 µM | 0.431 µM | > 9.24 µM | 0.116 µM | > 10 µM | 0.313 µM | 3.12 µM |
| COc1ccc(C(=O)c2ccc([As]=O)cc2)cc1 (stereo not drawn) | 0.113 µM | 0.246 µM | 0.0345 µM | 0.114 µM | 0.146 µM | 0.285 µM | 0.164 µM | 0.305 µM | 0.0617 µM | 0.203 µM | 0.0454 µM | 0.182 µM | 0.0902 µM | 0.254 µM | 0.0281 µM | 0.0861 µM | 0.057 µM | 0.18 µM | 0.041 µM | 0.166 µM |
| CC(C)(C)c1cc(C=C(C#N)C#N)cc(C(C)(C)C)c1O |  | 18.4 µM | 0.456 µM | 29.2 µM and 3.85 µM | 0.284 µM | 1.23 µM and 3.4 µM | 0.158 µM | 3.83 µM and 1.76 µM | 0.355 µM | 23.6 µM and 48.1 µM | 0.523 µM | > 354 µM | 0.219 µM | 2.86 µM and 1.61 µM | 0.507 µM | 15.4 µM and 8.08 µM | 0.336 µM |  | 0.363 µM and 0.191 µM | 0.369 µM |
| CC(=O)OCC1OC(N2C(=O)C(=O)c3ccccc32)C(OC(C)=O)C(OC(C)=O)C1OC(C)=O (stereo not drawn) |  | > 100 µM |  | > 100 µM |  | > 100 µM |  | > 100 µM |  | > 100 µM |  | > 100 µM |  | > 100 µM |  | > 100 µM |  | > 100 µM |  | > 100 µM |
| O=c1c2cc(Br)ccc2nc(CCl)n1-c1ccc(O)c([N+](=O)[O-])c1 |  | 34.1 µM |  | 33 µM |  | 31.5 µM |  | 90.2 µM |  | 42.2 µM |  | 33.4 µM |  | 35.7 µM |  | 33.4 µM |  | 32.8 µM |  | 37.8 µM |
| CCOC(=O)C1SC(=Nc2ccc(Cl)cc2)N=C1C (stereo not drawn) |  | 31.5 µM |  | 47.8 µM |  | 34.9 µM |  | 41.3 µM |  | 43.3 µM |  | 56.1 µM |  | 33 µM |  | 35.9 µM |  | 64.4 µM |  | 32.8 µM |
| O=C1CCCCN1CCCCC#Cc1cccc(C#Cc2cccnc2)c1 | 6.52 µM | 23.1 µM | 22.6 µM | 71.4 µM | 18.1 µM | 84 µM | 42.8 µM | > 100 µM | 21.6 µM | 67.9 µM | 13.4 µM | 32.1 µM | 19 µM | 63.7 µM | 21.7 µM | 79.1 µM | 49.8 µM | > 100 µM | 6.88 µM | 21 µM |
| Cc1cc(N(CCC#N)CCC#N)ccc1/C=C(\NC(=O)/C=C/c1ccccc1)C(=O)NN |  | > 100 µM |  | > 100 µM |  | > 95.6 µM |  | > 100 µM |  | > 100 µM |  | > 100 µM |  | > 100 µM |  | > 100 µM |  | > 76.8 µM |  | > 100 µM |
| C=CC(OCC)(OCC)OCC |  | > 100 µM |  | > 100 µM |  | > 100 µM |  | > 100 µM |  | > 100 µM |  | > 100 µM |  | > 100 µM |  | > 100 µM |  | > 100 µM |  | > 100 µM |
| O=C(O)[C@H](c1ccccc1)[C@@H](C(=O)O)c1ccccc1 |  | > 100 µM |  | > 100 µM |  | > 100 µM |  | > 100 µM |  | > 100 µM |  | > 100 µM |  | > 100 µM |  | > 100 µM |  | > 100 µM |  | > 100 µM |
| Nc1ncnc2c1ncn2CC(O)CO (stereo not drawn) |  | > 100 µM |  | > 100 µM |  | > 100 µM |  | > 100 µM |  | > 100 µM |  | > 100 µM |  | > 100 µM |  | > 100 µM |  | > 100 µM |  | > 100 µM |
| O=C(Nc1ccc(Cl)c(Cl)c1)NS(=O)(=O)c1cnccc1Oc1ccc(F)cc1 | 4.43 µM | 38.1 µM | 2.79 µM | 8.11 µM | 1.65 µM | 4.8 µM | > 100 µM | > 100 µM | 4.82 µM | > 100 µM | 3.26 µM | > 100 µM | 2.8 µM | 10.4 µM | 2.53 µM | 7.55 µM | 3.69 µM | 21.6 µM | 2.97 µM | 7.59 µM |
| N#CNC(N)=Nc1ccc(Cl)cc1 |  | > 100 µM |  | > 100 µM |  | > 100 µM |  | > 100 µM |  | > 100 µM |  | > 100 µM |  | > 100 µM |  | > 100 µM |  | > 100 µM |  | > 100 µM |
